Experiments:
[1] = target: T1, recombinant human CI-M6PR protein (Homo sapiens, UniProt P11717); assay: Human CI-M6PR binding assay (ELISA); conditions: conjugates of ligand linkers
T1 construct: purchased R&D 6418-GR-050
Description: Nunc black solid bottom MaxiSorp plates were allowed to incubate overnight at 4° C. coated with […] of recombinant human CI-M6PR protein (R&D, 6418-GR-050) in 50 μL PBS. The next day, coating was decanted and plates were washed 3× with PBS. Wells were blocked with 350 μL of 3% BSA-PBS for 1 hour at room temperature. […] 50 μL of diluted conjugates were added to the plate and allowed to incubate at room temperature for 2 hours. After incubation, solutions in plate were decanted and washed with 350 μL of 0.05% PBS-Tween20 three times, drying the plate each wash on a clean paper towel. 50 μL of peroxidase AffiniPure Mouse Anti-Human IgG (Jackson Immuno, 209-035-088) diluted in 3% BSA-PBS to […] was added to the plate and allowed to incubate for 1 hour at room temperature in the dark. After incubation, solutions in plate were decanted and washed with 350 μL of 0.05% PBS-Tween20 3 times, drying the plate each wash on a clean paper towel. […] 50 μL of QuantaBlu solution was added to wells and allowed to incubate for 5-10 minutes at room temperature. After incubation, plates were read on a Perkin Elmer EnVision using photometric 340 and Umbelliferone 460 filter sets for excitation and emission, respectively. Data analysis and non-linear curve-fitting was performed using GraphPad Prism.

[2] = Serum pharmacokinetic analysis of rIgG1 (anti-IgG2a) antibody conjugates; format: in vivo; conditions: C57B6 mice, intravenous, 10 μg/mouse, 0.5-24 hours, FIGS. 20A-20C
Description: A pharmacokinetic analysis of the rIgG1 (anti-IgG2a) antibody conjugates described in the previous example was performed in mice. In particular, C57B6 mice were intravenously administered each rIgG1 antibody conjugate at 10 μg/mouse (5 mice per group). Blood was collected at 0.5, 1, 2, 6, and 24 hours and serum rIgG1 was analyzed using an ELISA kit (Abcam) according to the manufacturer's instructions. Samples were run across 3 different plates with unconjugated rIgG1 controls (UNLB-anti-IgG2a rIgG1) included on all 3 plates.

Jurkat cells = assay: Conjugate-mediated uptake of IgG2a-Alexa488 into Jurkat cells (flow cytometry); format: cell-based; conditions: anti-IgG2a conjugates, 1 hour and 24 hours, FIGS. 21-22
Description: The anti-IgG2a conjugates were bound to IgG2a-Alexa488, as follows: equal molar ratios of anti-IgG2a and IgG2a-Alexa488 were added in tissue culture media for 30 minutes at room temperature. The resulting anti-IgG2a:IgG2a antibody-Alexa488 compositions were added to Jurkat cells (100 k cells/50 ul per well, n=2), and Alexa488 fluorescence levels were measured (via Alexa488 measurement) at 1 hour and 24 hours by flow cytometry. Because Alexa488 accumulates in cells, this presents a way to measure total intracellular uptake by cells over time.

T1 sequence (P11717 41-2491): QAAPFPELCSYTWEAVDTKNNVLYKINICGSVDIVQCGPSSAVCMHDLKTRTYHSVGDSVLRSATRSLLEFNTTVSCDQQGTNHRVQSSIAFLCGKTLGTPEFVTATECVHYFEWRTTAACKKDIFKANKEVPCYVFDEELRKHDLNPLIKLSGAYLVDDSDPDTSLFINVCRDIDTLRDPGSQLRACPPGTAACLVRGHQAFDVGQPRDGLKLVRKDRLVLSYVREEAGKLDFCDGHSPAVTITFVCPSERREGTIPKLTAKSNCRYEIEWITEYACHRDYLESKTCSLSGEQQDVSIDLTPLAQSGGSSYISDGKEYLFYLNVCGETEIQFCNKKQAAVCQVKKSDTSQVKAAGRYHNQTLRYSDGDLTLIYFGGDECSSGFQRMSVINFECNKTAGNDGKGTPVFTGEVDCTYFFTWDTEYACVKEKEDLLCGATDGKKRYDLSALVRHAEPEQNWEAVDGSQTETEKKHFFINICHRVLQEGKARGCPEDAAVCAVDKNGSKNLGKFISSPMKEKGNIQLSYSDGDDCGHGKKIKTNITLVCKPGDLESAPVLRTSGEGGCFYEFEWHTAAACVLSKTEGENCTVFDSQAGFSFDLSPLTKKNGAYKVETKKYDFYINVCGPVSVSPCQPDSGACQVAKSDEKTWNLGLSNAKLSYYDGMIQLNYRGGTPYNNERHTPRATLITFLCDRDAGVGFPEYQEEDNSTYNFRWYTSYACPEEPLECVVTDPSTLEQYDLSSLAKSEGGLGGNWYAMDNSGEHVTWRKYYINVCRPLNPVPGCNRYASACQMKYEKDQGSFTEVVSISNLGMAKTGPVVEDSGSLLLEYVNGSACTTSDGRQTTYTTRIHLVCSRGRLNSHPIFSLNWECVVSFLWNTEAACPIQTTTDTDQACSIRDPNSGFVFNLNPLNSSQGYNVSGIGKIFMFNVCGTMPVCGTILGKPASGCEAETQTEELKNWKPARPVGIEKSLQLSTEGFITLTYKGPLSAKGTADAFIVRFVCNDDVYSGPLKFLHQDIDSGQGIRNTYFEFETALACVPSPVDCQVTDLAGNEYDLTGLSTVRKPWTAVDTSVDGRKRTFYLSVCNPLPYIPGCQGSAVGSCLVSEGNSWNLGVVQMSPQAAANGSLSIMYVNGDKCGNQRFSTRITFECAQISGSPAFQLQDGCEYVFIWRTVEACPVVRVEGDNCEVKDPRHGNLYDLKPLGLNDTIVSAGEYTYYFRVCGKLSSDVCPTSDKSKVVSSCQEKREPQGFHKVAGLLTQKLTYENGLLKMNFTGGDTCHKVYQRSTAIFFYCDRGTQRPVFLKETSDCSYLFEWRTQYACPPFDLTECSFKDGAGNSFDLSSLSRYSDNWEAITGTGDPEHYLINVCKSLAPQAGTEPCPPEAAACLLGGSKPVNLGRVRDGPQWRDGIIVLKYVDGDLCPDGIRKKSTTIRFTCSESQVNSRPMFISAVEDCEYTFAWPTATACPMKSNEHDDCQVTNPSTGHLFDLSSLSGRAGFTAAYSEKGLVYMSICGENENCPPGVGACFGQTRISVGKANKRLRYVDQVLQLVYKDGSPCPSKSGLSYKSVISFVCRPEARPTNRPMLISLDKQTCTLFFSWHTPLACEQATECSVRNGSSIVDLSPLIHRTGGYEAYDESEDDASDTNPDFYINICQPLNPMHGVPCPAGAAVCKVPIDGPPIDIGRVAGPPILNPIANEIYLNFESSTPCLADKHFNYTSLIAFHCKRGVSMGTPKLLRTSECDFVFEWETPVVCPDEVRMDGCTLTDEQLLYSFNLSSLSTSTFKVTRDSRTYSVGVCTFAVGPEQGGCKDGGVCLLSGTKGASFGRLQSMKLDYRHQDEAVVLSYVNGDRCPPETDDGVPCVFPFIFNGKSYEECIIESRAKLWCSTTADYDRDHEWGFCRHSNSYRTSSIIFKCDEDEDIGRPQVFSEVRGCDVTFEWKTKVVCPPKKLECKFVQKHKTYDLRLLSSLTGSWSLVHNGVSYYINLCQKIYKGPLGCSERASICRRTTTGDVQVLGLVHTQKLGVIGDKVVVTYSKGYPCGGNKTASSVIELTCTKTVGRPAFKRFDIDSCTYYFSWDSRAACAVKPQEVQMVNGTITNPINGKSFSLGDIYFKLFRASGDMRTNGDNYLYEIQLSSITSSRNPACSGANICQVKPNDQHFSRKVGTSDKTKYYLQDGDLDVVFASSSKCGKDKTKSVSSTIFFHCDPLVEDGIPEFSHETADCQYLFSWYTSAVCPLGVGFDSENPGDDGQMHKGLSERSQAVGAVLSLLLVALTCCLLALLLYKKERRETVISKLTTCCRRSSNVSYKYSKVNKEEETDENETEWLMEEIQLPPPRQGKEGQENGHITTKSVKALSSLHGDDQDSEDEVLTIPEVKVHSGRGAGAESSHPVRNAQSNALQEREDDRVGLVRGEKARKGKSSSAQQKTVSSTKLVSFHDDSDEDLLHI

Structure (SMILES)	binding affinity to M6PR compared to Compound I-7 [1]	half life (serum rIgG1) compared to Compound I-7 conjugate [2]	uptake of IgG2a-Alexa488 into Jurkat cells (Jurkat cells)
O=C(CCOCCn1cc(CCO[C@H]2O[C@H](CCP(=O)(O)O)[C@@H](O)[C@H](O)[C@@H]2O)nn1)Oc1c(F)c(F)c(F)c(F)c1F [Compound I-11]	weaker binding affinity	longer half life	sufficiently robust uptake
O=C(CCOCCOCCOCCN(CCOCCOCCOCCn1cc(CCC[C@H]2O[C@H](CCP(=O)(O)O)[C@@H](O)[C@H](O)[C@@H]2O)nn1)CCOCCOCCOCCn1cc(CCO[C@H]2O[C@H](CCP(=O)(O)O)[C@@H](O)[C@H](O)[C@@H]2O)nn1)Oc1c(F)c(F)c(F)c(F)c1F [Compound I-12]	weaker binding affinity	longer half life	sufficiently robust uptake

Source: US20230158155A1, “Cell Surface Receptor Binding Compounds and Conjugates” (priority 2020, published 2023)
